Patent publication US8124766B2, “Inhibitors of diacylglycerol acyltransferase” (Madrigal Pharmaceuticals, Inc., priority 2008, dated 2012)

System: DGAT
Test: DGAT Phospholipid FlashPlate Assay
Type: biochemical
Details: DGAT pellet, DAG-coated PL-FlashPlate, 14C-Pal-CoA, 37° C. for 1 hour; read-out: DGAT Inhibition Activity IC50
Method in brief: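 DGAT membrane pellet (0.13 mg protein/ml diluted stock) reacted 1 h at 37 °C with 14C-palmitoyl-CoA (8.3 μM diluted stock) on FlashPlates coated with 500 μM DAG, in Tris-HCl pH 7.5, 100 mM NaCl. Scintillation counts converted to % inhibition; IC50 by 4-parameter logistic fit.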

| SMILES | IC50 [nM] |
| --- | --- |
| COc1cccc2c(C)c(C(=O)Nc3ccc(C4CCN(C(=O)[C@H]5CC[C@H](C(=O)O)CC5)CC4)cc3)[nH]c12 [Example 77, trans-4-(4-{4-[(7-Methoxy-3-methyl-1H-indole-2-carbonyl)-amino]phenyl}-piperidine-1-carbonyl)-cyclohexanecarboxylic acid] | 57 |
| CCOc1ccc2c(C)c(C(=O)Nc3ccc(N4CCN(C(=O)OC(C)(C)C)CC4)cc3)oc2c1OCC [Example 78, 4-{4-[(6,7-Diethoxy-3-methyl-benzofuran-2-carbonyl)-amino]-phenyl}-piperazine-1-carboxylic acid tert-butyl ester] | 848 |
| COCc1c(C(=O)Nc2ccc(N3CCN(C(=O)OC(C)(C)C)CC3)cc2)oc2ccccc12 [Example 79, 4-{4-[(3-Methoxymethyl-benzofuran-2-carbonyl)-amino]-phenyl}-piperazine-1-carboxylic acid tert-butyl ester] | 940 |
| CCOC(=O)N1CCC(Oc2ccc(NC(=O)c3oc4c(OCC)c(OCC)ccc4c3C)cc2)C1 (stereo not drawn) [Example 80, 3-{4-[(6,7-Diethoxy-3-methyl-benzofuran-2-carbonyl)-amino]-phenoxy}-pyrrolidine-1-carboxylic acid ethyl ester] | 583 |
| CCOC(=O)N1CCC(Oc2ccc(NC(=O)c3oc4ccccc4c3COC)cc2)C1 (stereo not drawn) [Example 81, 3-{4-[(3-Methoxymethyl-benzofuran-2-carbonyl)-amino]-phenoxy}-pyrrolidine-1-carboxylic acid ethyl ester] | 720 |
| COCCN(C)c1ccc(NC(=O)c2oc3c(F)cccc3c2C)cn1 [Example 82, 7-Fluoro-3-methyl-benzofuran-2-carboxylic acid {6-[(2-methoxy-ethyl)-methyl-amino]pyridin-3-yl}-amide] | 430 |
